Results as given in patent US20130150399A1, “INHIBITORS OF THE UNFOLDED PROTEIN RESPONSE AND METHODS FOR THEIR USE” (The Board of Trustees of the Leland Stanford Junior …, priority 2006, published 2013).

Tests used:
caspase-3 = assay: Cleavage of caspase-3, HT1080 cells; format: cell-based, human; settings: 2.5 μM
Protocol: (§1) Cells (2×10^6) were cultured in 10-cm dishes, collected using a cell scraper at 4° C., and lysed by addition of 150 μl cell lysis buffer [50 mM Tris pH 7.4, 150 mM NaCl, 10% glycerol, 0.5% Triton X-100. 0.5% NP-40, 2 mM Na3VO4, 20 mM beta-glycerophosphate, 10 mM NaF, 1 mM DTT, 1 mM PMSF). Lysates were centrifuged for 5 min at 10,000×g, and proteins (˜40 μg) were resolved by SDS-PAGE followed by semi-dry transfer to nitrocellulose membranes. Membranes were blocked in TBS-5% milk supplemented with 0.1% Tween-20. The blots were then probed overnight with relevant antibodies, washed, and incubated for 2 hours with species-specific secondary antibodies conjugated to horseradish peroxidase. After washing in block solution, immunoreactive material was detected by enhanced chemiluminescence (SuperSignal West Dura Extended, Pierce, Inc., Rockville, Ill.).
A. Effect of irestatin 9389 on PERK and ATF6 pathways. […] Protein lysates were analyzed by Western blot analysis using antisera specific for ATF6 (top), CHOP/GADD153 (middle) or actin (bottom). […] Cells were harvested, counted, and allowed to grow under normal culture conditions for 11-12 days. […] D. Quantification of clonogenic survival assay. […] F. Quantification of TUNEL-positive cells. […] Cells were harvested at the indicated times and counted by hemocytometer. Values represent the mean calculated from triplicate experiments+/−SEM. […]

XBP-1s = assay: Western immunoblot of XBP-1s, HT1080 cells; format: cell-based, human
Protocol: Cells were harvested, lysed, and analyzed by Western blot using anti-XBP-1 antisera (lower panel) or anti-HIF-1 antisera (top panel) to confirm hypoxia exposure.
as §1, with “The blots were then probed overnight with relevant antibodies, washed, and incubated for 2 hours with species-specific secondary antibodies conjugated to horseradish peroxidase.” left out
A. XBP-luciferase reporter construct. […] After 24 hours, luciferase activity was analyzed in an automated plate reader. For each cell line, values are expressed as the percent inhibition of the median for Tm/Tg-treated wells, corrected for background. […] Values are expressed as the fold increases over uninduced levels. […] Cells were harvested, lysed, and analyzed by immunoblotting with antisera specific for HIF-1α (top), XBP-1s (middle) or actin (bottom). […] Total RNA was analyzed by Northern blotting using radiolabeled probes specific for P58^IPK or DER-1. […]

Cc1csc(NC(=O)CSc2nc3c(c(C(F)(F)F)c2C#N)CCC3)n1 [Compound 9389]
cleavage of caspase-3 (caspase-3; 36 hours of hypoxia): stimulated cleavage of caspase-3 | caspase-3 processing (caspase-3; normal oxygen conditions): no effect on caspase-3 processing | levels of XBP-1s under hypoxia (XBP-1s; 2 μM, 24 hours of hypoxia): decreased levels of XBP-1s | accumulation of XBP-1s following treatment with Tm (XBP-1s; irestatins 2 μM, Tm (4 μg/ml) 20 hours): blocked the accumulation of XBP-1s
